Data as given in patent US20060121136A1, “Hypotensive agent and method for producing same” (National Institute of Advanced Industrial Science and …, priority 2003, published 2006).

molecular target: T1, angiotensin-converting enzyme (ACE) (Oryctolagus cuniculus, UniProt P12822); assay: ACE inhibiting activity (Hip-His-Leu substrate, liberated hippuric acid OD at 228 nm); format: biochemical; settings: final sample concentration 10 mM
T1 construct: purchased Wako Jun-yaku A6778 (Lot No.)
T1 sequence (P12822 34-1310): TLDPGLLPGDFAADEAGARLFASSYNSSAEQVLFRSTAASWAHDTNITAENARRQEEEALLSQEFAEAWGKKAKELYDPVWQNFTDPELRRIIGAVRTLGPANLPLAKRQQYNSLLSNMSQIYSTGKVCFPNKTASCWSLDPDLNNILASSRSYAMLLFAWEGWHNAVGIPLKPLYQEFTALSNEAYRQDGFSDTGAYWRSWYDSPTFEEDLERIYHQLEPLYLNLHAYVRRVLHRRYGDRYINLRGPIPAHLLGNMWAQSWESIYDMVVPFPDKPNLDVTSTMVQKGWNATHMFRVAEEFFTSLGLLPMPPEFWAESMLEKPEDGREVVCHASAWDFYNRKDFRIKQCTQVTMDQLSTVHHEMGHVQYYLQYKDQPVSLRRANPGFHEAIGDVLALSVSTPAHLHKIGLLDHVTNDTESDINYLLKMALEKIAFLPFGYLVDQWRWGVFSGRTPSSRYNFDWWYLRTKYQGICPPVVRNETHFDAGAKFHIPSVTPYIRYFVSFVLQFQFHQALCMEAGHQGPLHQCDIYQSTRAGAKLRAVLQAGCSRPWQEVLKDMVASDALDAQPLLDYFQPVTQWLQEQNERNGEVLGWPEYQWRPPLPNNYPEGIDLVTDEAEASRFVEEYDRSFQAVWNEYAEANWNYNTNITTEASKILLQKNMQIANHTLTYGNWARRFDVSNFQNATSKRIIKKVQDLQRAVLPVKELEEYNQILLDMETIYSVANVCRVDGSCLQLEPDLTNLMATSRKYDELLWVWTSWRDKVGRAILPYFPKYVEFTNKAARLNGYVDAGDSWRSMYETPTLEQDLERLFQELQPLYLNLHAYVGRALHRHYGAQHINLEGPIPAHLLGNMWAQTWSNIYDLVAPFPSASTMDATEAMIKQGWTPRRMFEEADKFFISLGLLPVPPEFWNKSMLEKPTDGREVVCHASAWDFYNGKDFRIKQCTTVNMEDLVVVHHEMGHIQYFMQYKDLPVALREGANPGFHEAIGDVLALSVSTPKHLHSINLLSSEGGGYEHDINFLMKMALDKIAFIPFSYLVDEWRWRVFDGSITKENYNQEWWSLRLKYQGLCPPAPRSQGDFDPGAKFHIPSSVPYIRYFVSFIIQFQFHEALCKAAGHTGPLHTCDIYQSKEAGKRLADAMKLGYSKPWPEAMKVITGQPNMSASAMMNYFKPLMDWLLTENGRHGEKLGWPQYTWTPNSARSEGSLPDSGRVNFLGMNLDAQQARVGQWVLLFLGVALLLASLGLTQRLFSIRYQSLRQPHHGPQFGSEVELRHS
Description: The blood pressure-lowering activity of the oligosaccharide for use in the invention was investigated by determining the angiotensin-converting enzyme inhibiting activity (hereinafter referred to as ACE inhibiting activity) thereof. Concretely, various oligosaccharides mentioned below were analyzed for their ACE inhibiting activity. • 1) Glc(α1-1α)Glc: α,α-trehalose (sold by Wako Jun-yaku, Lot No. KP7915), • 2) Glc(α1-1β)Glc: α,β-trehalose (sold by Sigma, Lot No. T-0299), • 3) Glc(β1-1β)Glc: β,β-trehalose (sold by Sigma, Lot No. T-0917), • 4) Glc(α1-2)Glc: kojibiose (sold by Sigma, Lot No. T-0299), • 5) Glc(β1-2)Glc: sophorose (sold by Sigma, Lot No. S-1404), • 6) Glc(α1-3)Glc: nigerose (sold by Wako Jun-yaku, Lot No. 142-06433), • 7) Glc(β1-3)Glc: laminaribiose (sold by Sigma, Lot No. L-6384), • 8) Glc(α1-4)Glc: maltose (sold by Sigma, Lot No. M-9171), • 9) Glc(β1-4)Glc: cellobiose (sold by Nacalai, Lot No. 075-11), • 10) Glc(α1-6)Glc: isomaltose (sold by Sigma, Lot No. I-7253), • 11) Glc(β1-6)Glc: gentiobiose (sold by Sigma, Lot No. G-3000), • 12) Gal(α1-6)Glc: melibiose (sold by Sigma, Lot No. M-5500), • 13) Gal(β1-6)Gal (sold by Sigma, Lot No. G-5643), • 14) Glc(α1-6) glucitol:Glc(α1-6) mannitol (=50:50) (sold by Sigma, Lot No. P8583-500), • 15) Glc(α1-6)Fru: palatinose (sold by Sigma, Lot No. M-5500), • 16) Fru(β2-1α)Glc: sucrose (sold by Wako Jun-yaku, Lot No. 192-00012), and • 17) Glc(α1-3) Fru(β2-1α) Glc: melezitose (sold by Nacalai, Lot No. 214-01). In these, Glu means glucose; Gal means galactose; and Fru means fructose.
Each oligosaccharide as above was dissolved in water (MilliQ water). Because of the solubility thereof, the sample was dissolved to have a final concentration of 10, 30 or 100 mM at the time when its activity is determined (Table 1). Next, with cooling with ice, 30 μl of the sample (Nos. 1 to 17 in Table 1) was put into a test tube. Then, 100 μl of ACE (sold by Wako Jun-yaku, Lot No. A6778) in a borate buffer (60 mU/ml) (pH 8.3) was added to each sample. As a blank, one also added with 250 μl of 1 N HCl serving as a reaction stopper was prepared. These were pre-incubated at 37° C. for 5 minutes. Further, 250 μl of a borate buffer (pH 8.3) containing as a substrate, 7.6 mM Hip-His-Leu (sold by Sigma, Lot No. 012-02195) and 608 mM sodium chloride (sold by Wako Jun-yaku, Lot No. 191-01665) was added. These were reacted at 37° C. for 30 minutes. Then, 250 μl of 1 NHCl was added and stirred, and the reaction was stopped. Then, 1.5 ml of ethyl acetate (sold by Wako Jun-yaku, Lot No. 051-00356) was added, and the thus-liberated hippuric acid was extracted out. After thus extracted, it was centrifuged at 3000 rpm for 10 minutes, and 0.5 ml of the supernatant (ethyl acetate layer)was recovered. The thus-recovered ethyl acetate was removed under reduced pressure, and 4 ml of water was added and stirred. The absorption of the dissolved hippuric acid at 228 nm (OD) was measured. The borate buffer used herein was prepared from Na2B4O7 (sold by Wako Jun-yaku, Lot No. 194-01415) and H3BO3 (sold by Wako Jun-yaku, Lot No. 012-02195) so that its pH could be 8.3. The data obtained were computed according to the calculation formula mentioned below, and the ACE inhibiting activity (%) of each sample was obtained as in Table 1 and FIG. 1. ACE Inhibiting Activity (%)={[(solvent OD−solvent blank OD)−(sample OD−sample blank OD)]/(solvent OD−solvent blank OD)}×100.

Point of comparison: OC[C@H]1O[C@H](O[C@H]2C(O)O[C@H](CO)[C@@H](O)[C@@H]2O)[C@H](O)[C@@H](O)[C@@H]1O (stereo partly shown) [compound 4, kojibiose], “ACE Inhibiting Activity (%)” value 1.0%. Against it:
- OC[C@H]1O[C@H](O[C@H]2[C@H](O)[C@@H](CO)OC(O)[C@@H]2O)[C@H](O)[C@@H](O)[C@@H]1O (stereo partly shown) [compound 6, nigerose] — lower, 0.4%

same assay, conditions: final sample concentration 30 mM

Point of comparison: OC[C@H]1O[C@@H](O[C@H]2[C@H](O)[C@@H](CO)OC(O)[C@@H]2O)[C@H](O)[C@@H](O)[C@@H]1O (stereo partly shown) [compound 7, laminaribiose], “ACE Inhibiting Activity (%)” value 0.8%. Against it:
- OC[C@H]1O[C@@H](O[C@H]2O[C@H](CO)[C@@H](O)[C@H](O)[C@H]2O)[C@H](O)[C@@H](O)[C@@H]1O [compound 2, α,β-trehalose] — higher, 1.6%
- OC[C@H]1O[C@H](O[C@H]2O[C@H](CO)[C@@H](O)[C@H](O)[C@H]2O)[C@H](O)[C@@H](O)[C@@H]1O [compound 1, α,α-trehalose] — higher, 1.2%
- OC[C@H]1O[C@@H](O[C@H]2C(O)O[C@H](CO)[C@@H](O)[C@@H]2O)[C@H](O)[C@@H](O)[C@@H]1O (stereo partly shown) [compound 5, sophorose] — higher, 3.0%
- OC[C@H]1O[C@@H](O[C@@H]2O[C@H](CO)[C@@H](O)[C@H](O)[C@H]2O)[C@H](O)[C@@H](O)[C@@H]1O [compound 3, β,β-trehalose] — lower, 0.6%

Point of comparison: OC[C@H]1O[C@@](CO)(O[C@H]2O[C@H](CO)[C@@H](O)[C@H](O)[C@H]2O)[C@@H](O[C@H]2O[C@H](CO)[C@@H](O)[C@H](O)[C@H]2O)[C@@H]1O [compound 17, melezitose], inhibition at 30000 µM 5.5%. Against it:
- OC[C@H]1O[C@@](CO)(O[C@H]2O[C@H](CO)[C@@H](O)[C@H](O)[C@H]2O)[C@@H](O)[C@@H]1O [compound 16, sucrose] — higher, 6.6%
- O=C[C@H](O)[C@@H](O)[C@H](O[C@@H]1O[C@H](CO)[C@@H](O)[C@H](O)[C@H]1O)[C@H](O)CO [compound 9, cellobiose] — lower, -1%

same assay, conditions: final sample concentration 100 mM

Point of comparison: OC[C@H]1O[C@H](OC[C@H]2OC(O)(CO)[C@@H](O)[C@@H]2O)[C@H](O)[C@@H](O)[C@@H]1O (stereo partly shown) [compound 15, palatinose], “ACE Inhibiting Activity (%)” value 93.5%. Against it:
- OC[C@H]1O[C@H](OC[C@H]2OC(O)[C@H](O)[C@@H](O)[C@@H]2O)[C@H](O)[C@@H](O)[C@@H]1O (stereo partly shown) [compound 10, isomaltose] — lower, 27.2%
- OC[C@H]1O[C@H](OCC2O[C@@H](O)[C@H](O)[C@@H](O)[C@@H]2O)[C@H](O)[C@@H](O)[C@H]1O (stereo partly shown) [compound 12, melibiose] — lower, 40.7%
- OC[C@H]1O[C@@H](OC[C@H]2OC(O)[C@H](O)[C@@H](O)[C@H]2O)[C@H](O)[C@@H](O)[C@H]1O (stereo partly drawn) [compound 13, Gal(β1-6)Gal] — lower, 54.9%
- gentiobiose [compound 11] — lower, 31.5%

Work on OC[C@H]1O[C@H](O[C@H]2[C@H](O)[C@@H](O)C(O)O[C@@H]2CO)[C@H](O)[C@@H](O)[C@@H]1O (mixture of isomers) [compound 8, maltose] yielded an inhibition at 100000 µM of 6.3%.
